For the assay, the target named is human GPBAR1 receptor (Homo sapiens (Human), UniProt Q8TDU6). In words: functional cAMP assay in CHO-dhfr(minus) cells expressing human GPBAR1 receptors. Type of assay: cell-based. The conditions noted are these: CHO-dhfr(minus) cells expressing human GPBAR1, 30 min at 30° C. A digest of the protocol:
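CHO-dhfr- cells were transfected with human GPBAR1, and a clone was chosen by cAMP response to lithocholic acid. EC50 values come from the cAMP read-out; specificity was checked in non-transfected CHO cells.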
On the technique in general: Changes in cAMP serve as a functional read-out for many G protein-coupled receptors.

pEC50: −log10 of the molar value.

Chain of human GPBAR1 receptor (Q8TDU6 whole entry): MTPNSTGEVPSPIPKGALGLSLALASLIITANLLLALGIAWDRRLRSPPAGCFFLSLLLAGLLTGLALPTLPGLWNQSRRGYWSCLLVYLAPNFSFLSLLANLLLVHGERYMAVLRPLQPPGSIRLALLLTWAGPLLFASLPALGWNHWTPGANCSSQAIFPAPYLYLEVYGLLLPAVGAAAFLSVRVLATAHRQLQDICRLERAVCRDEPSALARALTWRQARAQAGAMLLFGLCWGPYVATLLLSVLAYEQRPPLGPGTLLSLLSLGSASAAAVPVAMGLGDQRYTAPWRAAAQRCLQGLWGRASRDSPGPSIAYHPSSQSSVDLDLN

The term pEC50 denotes −log10 of the EC50, conventionally taken in molar units. A higher pEC50 goes with a small EC50. `COc1cc(F)ccc1-c1ccncc1N(C)C(=O)c1cc(C(F)(F)F)cc(S(=O)(=O)CCO)c1` [Example 218, N-[4-(4-Fluoro-2-methoxy-phenyl)-pyridin-3-yl]-3-(2-hydroxy-ethanesulfonyl)-N-methyl-5-trifluoromethyl-benzamide] showed a pEC50 of 7.14. As to `CS(=O)(=O)c1cc(C(=O)N(CC(N)=O)c2cnccc2-c2ccccc2F)cc(C(F)(F)F)c1` [Example 219, N-Carbamoylmethyl-N-[4-(2-fluoro-phenyl)-pyridin-3-yl]-3-methanesulfonyl-5-trifluoromethyl-benzamide], the pEC50 was 5.52. With `CCc1cc(-c2ccccc2C)c(N(C)C(=O)c2cc(C(F)(F)F)cc(C(F)(F)F)c2)cn1` [Example 220, N-(6-Ethyl-4-o-tolyl-pyridin-3-yl)-N-methyl-3,5-bis-trifluoromethyl-benzamide] the figure was 5.70. For `COc1cc(F)ccc1-c1ccncc1N(C)C(=O)c1cc(C(F)(F)F)nc(S(C)(=O)=O)c1` [Example 221, N-[4-(4-Fluoro-2-methoxy-phenyl)-pyridin-3-yl]-2-methanesulfonyl-N-methyl-6-trifluoro-methyl-isonicotinamide] the value was 7.23. For `CN(C(=O)c1cc(C(F)(F)F)cc(C(F)(F)F)c1)c1cnccc1-c1ccccc1N` [Example 222, N-[4-(2-Amino-phenyl)-pyridin-3-yl]-N-methyl-3,5-bis-trifluoromethyl-benzamide] the value was 6.74; for `COc1cccc(F)c1-c1ccncc1N(CC(F)(F)F)C(=O)c1cc(C(F)(F)F)cc(S(C)(=O)=O)c1` [Example 223, N-[4-(2-Fluoro-6-methoxy-phenyl)-pyridin-3-yl]-3-methanesulfonyl-N-(2,2,2-trifluoro-ethyl)-5-trifluoromethyl-benzamide], 7.34; for `COC(=O)CCS(=O)(=O)c1cc(C(=O)N(C)c2cnccc2-c2ccc(F)cc2OC)cc(C(F)(F)F)c1` [Example 224, 3-(3-{[4-(4-Fluoro-2-methoxy-phenyl)-pyridin-3-yl]-methyl-carbamoyl}-5-trifluoromethyl-benzenesulfonyl)-propionic acid methyl ester], 7.34. Regarding `COC(=O)CCSc1cc(C(=O)N(C)c2cnccc2-c2ccc(F)cc2OC)cc(C(F)(F)F)c1` [Example 225, 3-(3-{[4-(4-Fluoro-2-methoxy-phenyl)-pyridin-3-yl]-methyl-carbamoyl}-5-trifluoromethyl-phenylsulfanyl)-propionic acid methyl ester], the pEC50 is 6.62. With `COc1cc(F)ccc1-c1ccncc1N(C)C(=O)c1cc(O)cc(C(F)(F)F)c1` [Example 226, N-[4-(4-Fluoro-2-methoxy-phenyl)-pyridin-3-yl]-3-hydroxy-N-methyl-5-trifluoromethyl-benzamide] the figure was 6.02. With `COc1cc(F)ccc1-c1ccncc1N(C)C(=O)c1cc(Cl)cc(OC(F)(F)F)c1` [Example 227, 3-Chloro-N-[4-(4-fluoro-2-methoxy-phenyl)-pyridin-3-yl]-N-methyl-5-trifluoromethoxy-benzamide] the figure was 7.03; with `COc1cc(F)ccc1-c1ccncc1N(CC#N)C(=O)c1cc(C(F)(F)F)cc(S(C)(=O)=O)c1` [Example 228, N-Cyanomethyl-N-[4-(4-fluoro-2-methoxy-phenyl)-pyridin-3-yl]-3-methanesulfonyl-5-trifluoromethyl-benzamide], 7.24. On to `COCCN(C(=O)c1cc(C(F)(F)F)cc(S(C)(=O)=O)c1)c1cnccc1-c1c(F)cccc1OC` [Example 229, N-[4-(2-Fluoro-6-methoxy-phenyl)-pyridin-3-yl]-3-methanesulfonyl-N-(2-methoxy-ethyl)-5-trifluoromethyl-benzamide], for which the pEC50 was 7.57. For `COc1cc(F)ccc1-c1ccnc(C)c1N(C)C(=O)c1cc(C(F)(F)F)cc(S(C)(=O)=O)c1` [Example 230, N-[4-(4-Fluoro-2-methoxy-phenyl)-2-methyl-pyridin-3-yl]-3-methanesulfonyl-N-methyl-5-trifluoromethyl-benzamide] the value was 7.14.

Consider `COc1cc(F)ccc1-c1ccncc1N(Cc1cc(C)on1)C(=O)c1cc(C(F)(F)F)cc(S(C)(=O)=O)c1` [Example 231, N-[4-(4-Fluoro-2-methoxy-phenyl)-pyridin-3-yl]-3-methanesulfonyl-N-(5-methyl-isoxazol-3-ylmethyl)-5-trifluoromethyl-benzamide], for which the pEC50 was 5.46. With `COc1cc(F)ccc1-c1ccncc1N(C)C(=O)c1cc(SCCNC(=O)OC(C)(C)C)cc(C(F)(F)F)c1` [Example 234, [2-(3-{[4-(4-Fluoro-2-methoxy-phenyl)-pyridin-3-yl]-methyl-carbamoyl}-5-trifluoromethyl-phenylsulfanyl)-ethyl]-carbamic acid tert-butyl ester] the figure was 6.39. The molecule `COc1cc(F)ccc1-c1ccncc1N(C)C(=O)c1cc(C2COC2)cc(C(F)(F)F)c1` [Example 235, N-[4-(4-Fluoro-2-methoxy-phenyl)-pyridin-3-yl]-N-methyl-3-oxetan-3-yl-5-trifluoromethyl-benzamide] gave a negative-log EC50 (pEC50) of 7.07. In the case of `COCCOc1cc(C(=O)N(C)c2cnccc2-c2ccc(F)cc2OC)cc(C(F)(F)F)c1` [Example 236, N-[4-(4-Fluoro-2-methoxy-phenyl)-pyridin-3-yl]-3-(2-methoxy-ethoxy)-N-methyl-5-trifluoromethyl-benzamide], the pEC50 is 6.05. `COc1cc(F)ccc1-c1ccncc1N(C)C(=O)c1cc(SCCN)cc(C(F)(F)F)c1` [Example 237, 3-(2-Amino-ethylsulfanyl)-N-[4-(4-fluoro-2-methoxy-phenyl)-pyridin-3-yl]-N-methyl-5-trifluoromethyl-benzamide] showed a pEC50 of 6.47.

Take `COc1cc(F)ccc1-c1ccncc1N(C)C(=O)c1cc(Cl)cc(C2CC2)c1` [Example 238, 3-Chloro-5-cyclopropyl-N-[4-(4-fluoro-2-methoxy-phenyl)-pyridin-3-yl]-N-methyl-benzamide]: the pEC50 was 7.64. `COc1cc(F)ccc1-c1ccncc1N(C)C(=O)c1cc(SCCCC(=O)O)cc(C(F)(F)F)c1` [Example 239, 4-(3-{[4-(4-Fluoro-2-methoxy-phenyl)-pyridin-3-yl]-methyl-carbamoyl}-5-trifluoromethyl-phenylsulfanyl)-butyric acid] had a pEC50 of 6.29. For `COc1cc(F)ccc1-c1ccncc1N(C)C(=O)c1cc(OCCO)cc(C(F)(F)F)c1` [Example 240, N-[4-(4-Fluoro-2-methoxy-phenyl)-pyridin-3-yl]-3-(2-hydroxy-ethoxy)-N-methyl-5-trifluoromethyl-benzamide] the value was 5.94; for `COc1cc(F)ccc1-c1ccncc1N(C)C(=O)c1cc(C(F)(F)F)cc(S(=O)(=O)CCN)c1` [Example 241, 3-(2-Amino-ethanesulfonyl)-N-[4-(4-fluoro-2-methoxy-phenyl)-pyridin-3-yl]-N-methyl-5-trifluoromethyl-benzamide], 6.98; for `CN(C(=O)c1cc(C(F)(F)F)cc(S(C)(=O)=O)c1)c1cnccc1-c1ccccc1OC1CC1` [Example 242, N-[4-(2-Cyclopropoxy-phenyl)-pyridin-3-yl]-3-methanesulfonyl-N-methyl-5-trifluoromethyl-benzamide], 7.96. With `COc1cc(F)ccc1-c1ccncc1N(C)C(=O)c1cc(SCCCCC(=O)O)cc(C(F)(F)F)c1` [Example 243, 5-(3-{[4-(4-Fluoro-2-methoxy-phenyl)-pyridin-3-yl]-methyl-carbamoyl}-5-trifluoromethyl-phenylsulfanyl)-pentanoic acid] the figure was 6.21. `CS(=O)(=O)c1cc(C(=O)N(CCO)c2cnccc2-c2ccccc2F)cc(C(F)(F)F)c1` [Example 244, N-[4-(2-Fluoro-phenyl)-pyridin-3-yl]-N-(2-hydroxy-ethyl)-3-methanesulfonyl-5-trifluoromethyl-benzamide] had a pEC50 of 5.94. With `COc1cc(F)ccc1-c1ccncc1N(C)C(=O)c1cc(C2CN(C(=O)OC(C)(C)C)C2)cc(C(F)(F)F)c1` [Example 245, 3-(3-{[4-(4-Fluoro-2-methoxy-phenyl)-pyridin-3-yl]-methyl-carbamoyl}-5-trifluoromethyl-phenyl)-azetidine-1-carboxylic acid tert-butyl ester] the figure was 6.03. `COc1cc(F)ccc1-c1ccncc1N(C)C(=O)c1cc(Br)cc(OC(F)(F)F)c1` [Example 246, 3-Bromo-N-[4-(4-fluoro-2-methoxy-phenyl)-pyridin-3-yl]-N-methyl-5-trifluoromethoxy-benzamide] gave a pEC50 of 6.77. For `COc1cc(F)ccc1-c1ccncc1N(C)C(=O)c1cc(C(F)(F)F)cc(S(=O)(=O)CCCC(=O)O)c1` [Example 247, 4-(3-{[4-(4-Fluoro-2-methoxy-phenyl)-pyridin-3-yl]-methyl-carbamoyl}-5-trifluoromethyl-benzenesulfonyl)-butyric acid] the value was 6.38. The molecule `COc1cc(F)ccc1-c1ccncc1N(C)C(=O)c1cc(C(F)(F)F)cc(S(=O)(=O)CCCCC(=O)O)c1` [Example 248, 5-(3-{[4-(4-Fluoro-2-methoxy-phenyl)-pyridin-3-yl]-methyl-carbamoyl}-5-trifluoromethyl-benzenesulfonyl)-pentanoic acid] gave a pEC50 of 6.49. For `COc1cc(F)ccc1-c1ccncc1N(C)C(=O)c1cc(C(F)(F)F)cc(S(=O)(=O)N2CCC2)c1` [Example 249, 3-(Azetidine-1-sulfonyl)-N-[4-(4-fluoro-2-methoxy-phenyl)-pyridin-3-yl]-N-methyl-5-trifluoromethyl-benzamide] the value was 7.72.

Take `COc1cc(F)ccc1-c1ccncc1N(Cc1nccn1C)C(=O)c1cc(C(F)(F)F)cc(S(C)(=O)=O)c1` [Example 250, N-[4-(4-Fluoro-2-methoxy-phenyl)-pyridin-3-yl]-3-methanesulfonyl-N-(1-methyl-1H-imidazol-2-ylmethyl)-5-trifluoromethyl-benzamide]: the pEC50 was 5.53.

For the origin of these results see patent US10385022B2, “3-amino-pyridines as GPBAR1 agonists” (HOFFMANN-LA ROCHE INC., priority 2011, dated 2019).
